These results are taken from patent US9242993B2, “Morpholino substituted bicyclic pyrimidine urea or carbamate derivatives as mTOR inhibitors” (CELLZOME LIMITED, priority 2011, dated 2016).

Assay [1] deals with S6RP serine-240/244 phosphorylation. The experiment in a line: In vitro phospho-S6 cellular assay. The note with it: Homo sapiens; HEK293T/17 cells, 2 hours; read-out: pS6 inhibition value (IC50), activity level. Format: cell-based. The text has this:
Activation of mTOR signaling results in phosphorylation of several downstream targets. In cells, mTOR exists in two different protein complexes. The mTOR Complex-1 (mTORC1) phosphorylates and activates S6 Kinase 1 (S6K1) and S6 Kinase 2 (S6K2) (also known as p70S6K) which then phosphorylate S6 Ribosomal Protein (S6RP) (also known as RPS6)3. S6RP is phosphorylated on serine 235, serine 236, serine 240 and serine 244 by both pS6K1 and pS6K2. The mTOR Complex-2 (mTORC2) phosphorylates AKT on serine 473 which activates the AKT signaling pathway.
The assay measures a test compound's inhibition of S6RP serine-240/244 phosphorylation and inhibition of Akt serine-473 phosphorylation in human embryonic kidney derived HEK293T/17 cells (ATCC CRL-11268).
The HEK293T/17 cell line is maintained in DMEM media (Invitrogen catalogue number 41965-039) supplemented with 10% FCS at 37° C. in a 5% CO2 humidified incubator.
Cells are seeded in 96-well plates at 40,000 cells/well (pS6RP S240/244 assay) or 80,000 cells/well (pAkt S473 assay) in 90 μl growth media (DMEM, 2% FCS). Plates are incubated for 1 hour in a humidified incubator to allow the cells to adhere. Cells are treated with 8 concentrations of test compounds or DMSO alone for controls (final DMSO concentration 0.1%) and incubated at 37° C. for 2 hours. Then 20 μl of 5× concentrated lysis buffer (750 mM NaCl, 100 mM Tris pH7.4, 5 mM ADTA, 5 mM EGTA, 5% Triton X-100) is added, plates are sealed and incubated for 15 minutes at 4° C. with gentle shaking. After cell lysis, 25 μl cell lysate is transferred to a MesoScale plate coated with an antibody to pS6RP Ser240/244 (MesoScale Discovery K150DGD-3) or an antibody to pAkt Ser 473 (MesoScale Discovery K151DGD-3). Plates have been blocked before by incubation with 150 μl MesoScale Discovery Blocking Solution-A for 1 hour at room temperature followed by washing with 150 μl 1× Tris wash buffer per well. After the transfer of the cell lysate to the MSD plate, the pS6RP (or pAkt) protein is captured on the coated antibody by incubation at room temperature for 1 hour with gentle shaking. After the capture step the plate is washed three times with 150 μl of 1× Tris wash buffer per well. Then 25 μl detection antibody conjugated with a Sulfo-Tag is added and incubated for 1 hour at room temperature with gentle shaking. Subsequently the antibody solution is removed and the plate is washed 3 times with 150 μl 1× Tris wash buffer per well and 150 μl Read buffer is added. The plates are analysed on a MSD 2400 Plate Reader (MesoScale Discovery). Data analysis is performed using nonlinear regression for a sigmoidal dose-response with a variable slope.

Assay [2] deals with IFNγ release in whole blood. In words: In vitro human whole blood assay (IFNγ release). The note with it: αCD3/αCD28 and IL-2 stimulation, 18 hours, read-out: WB inhibition value (pIC50) (converted). Format: cell-based. As to the method: This assay measures IFNγ release in whole blood after αCD3/αCD28 and IL-2 treatment. The whole blood contains circulating T lymphocytes; αCD3/αCD28 stimulation mimics antigen receptor signalling, resulting in epigenetic changes to the IFNG gene locus, such that when IL-2 is added, IFNγ is produced.
Human whole blood, with Na-heparin as the anticoagulant, is obtained from Clinical Trials Laboratory Services. Blood is diluted 1.4 times with RPMI 1640 (Lonza, BE12-167F) and 175 μl/well is distributed in a low evaporation 96-well plates (Falcon, BD Labware, 353072). Blood is treated with 10 concentrations of test compounds or DMSO alone for controls (final DMSO concentration 0.2%) and incubated at 37° C. for 1 hour. Blood is then stimulated with 1 μg/ml αCD3 (R&D Systems, MAB100), 1 μg/ml αCD28 (BD Pharmingen, 555725) and IL-2 at 10 ng/ml (Peprotech, 200-02). Blood is then left to incubate at 37° C. for 18 hours. After, plates are spun at 250 g for 5 minutes to pellet blood cells and 25 μl of plasma is transferred to a MesoScale plate coated with an antibody to IFNγ (MesoScale Discovery K151AEC-2) containing 25 μl/well MesoScale Discovery Blocking Solution-2. Plates have been blocked by incubating with 25 μl/well MesoScale Discovery Blocking Solution-2 for 30 minutes at room temperature. After the transfer of sera to the MSD plate, the IFNγ protein is captured on the coated antibody by incubation at room temperature for 2 hour with gentle shaking. After the capture step the plate is washed three times with 150 μl/well of 1×PBS-Tween wash buffer and 25 μl/well detection antibody conjugated with a Sulfo-Tag is added and incubated for 2 hours at room temperature with gentle shaking. Subsequently the antibody solution is removed and the plate is washed 3 times with 150 μl/well 1×PBS-Tween wash buffer and 150 μl/well MesoScale Discovery Read buffer is added. The plates are analysed on a MSD 2400 Plate Reader (MesoScale Discovery). Data analysis is performed using nonlinear regression for a sigmoidal dose-response with a variable slope.

For assay [3], the target named is mTOR (Homo sapiens, UniProt P42345). The experiment in a line: biochemical.
For assay [4], the target named is DNA-dependent protein kinase (DNA-PK) (Homo sapiens, UniProt P78527). In words: biochemical.
Sequence of DNA-dependent protein kinase (DNA-PK) (P78527 whole entry): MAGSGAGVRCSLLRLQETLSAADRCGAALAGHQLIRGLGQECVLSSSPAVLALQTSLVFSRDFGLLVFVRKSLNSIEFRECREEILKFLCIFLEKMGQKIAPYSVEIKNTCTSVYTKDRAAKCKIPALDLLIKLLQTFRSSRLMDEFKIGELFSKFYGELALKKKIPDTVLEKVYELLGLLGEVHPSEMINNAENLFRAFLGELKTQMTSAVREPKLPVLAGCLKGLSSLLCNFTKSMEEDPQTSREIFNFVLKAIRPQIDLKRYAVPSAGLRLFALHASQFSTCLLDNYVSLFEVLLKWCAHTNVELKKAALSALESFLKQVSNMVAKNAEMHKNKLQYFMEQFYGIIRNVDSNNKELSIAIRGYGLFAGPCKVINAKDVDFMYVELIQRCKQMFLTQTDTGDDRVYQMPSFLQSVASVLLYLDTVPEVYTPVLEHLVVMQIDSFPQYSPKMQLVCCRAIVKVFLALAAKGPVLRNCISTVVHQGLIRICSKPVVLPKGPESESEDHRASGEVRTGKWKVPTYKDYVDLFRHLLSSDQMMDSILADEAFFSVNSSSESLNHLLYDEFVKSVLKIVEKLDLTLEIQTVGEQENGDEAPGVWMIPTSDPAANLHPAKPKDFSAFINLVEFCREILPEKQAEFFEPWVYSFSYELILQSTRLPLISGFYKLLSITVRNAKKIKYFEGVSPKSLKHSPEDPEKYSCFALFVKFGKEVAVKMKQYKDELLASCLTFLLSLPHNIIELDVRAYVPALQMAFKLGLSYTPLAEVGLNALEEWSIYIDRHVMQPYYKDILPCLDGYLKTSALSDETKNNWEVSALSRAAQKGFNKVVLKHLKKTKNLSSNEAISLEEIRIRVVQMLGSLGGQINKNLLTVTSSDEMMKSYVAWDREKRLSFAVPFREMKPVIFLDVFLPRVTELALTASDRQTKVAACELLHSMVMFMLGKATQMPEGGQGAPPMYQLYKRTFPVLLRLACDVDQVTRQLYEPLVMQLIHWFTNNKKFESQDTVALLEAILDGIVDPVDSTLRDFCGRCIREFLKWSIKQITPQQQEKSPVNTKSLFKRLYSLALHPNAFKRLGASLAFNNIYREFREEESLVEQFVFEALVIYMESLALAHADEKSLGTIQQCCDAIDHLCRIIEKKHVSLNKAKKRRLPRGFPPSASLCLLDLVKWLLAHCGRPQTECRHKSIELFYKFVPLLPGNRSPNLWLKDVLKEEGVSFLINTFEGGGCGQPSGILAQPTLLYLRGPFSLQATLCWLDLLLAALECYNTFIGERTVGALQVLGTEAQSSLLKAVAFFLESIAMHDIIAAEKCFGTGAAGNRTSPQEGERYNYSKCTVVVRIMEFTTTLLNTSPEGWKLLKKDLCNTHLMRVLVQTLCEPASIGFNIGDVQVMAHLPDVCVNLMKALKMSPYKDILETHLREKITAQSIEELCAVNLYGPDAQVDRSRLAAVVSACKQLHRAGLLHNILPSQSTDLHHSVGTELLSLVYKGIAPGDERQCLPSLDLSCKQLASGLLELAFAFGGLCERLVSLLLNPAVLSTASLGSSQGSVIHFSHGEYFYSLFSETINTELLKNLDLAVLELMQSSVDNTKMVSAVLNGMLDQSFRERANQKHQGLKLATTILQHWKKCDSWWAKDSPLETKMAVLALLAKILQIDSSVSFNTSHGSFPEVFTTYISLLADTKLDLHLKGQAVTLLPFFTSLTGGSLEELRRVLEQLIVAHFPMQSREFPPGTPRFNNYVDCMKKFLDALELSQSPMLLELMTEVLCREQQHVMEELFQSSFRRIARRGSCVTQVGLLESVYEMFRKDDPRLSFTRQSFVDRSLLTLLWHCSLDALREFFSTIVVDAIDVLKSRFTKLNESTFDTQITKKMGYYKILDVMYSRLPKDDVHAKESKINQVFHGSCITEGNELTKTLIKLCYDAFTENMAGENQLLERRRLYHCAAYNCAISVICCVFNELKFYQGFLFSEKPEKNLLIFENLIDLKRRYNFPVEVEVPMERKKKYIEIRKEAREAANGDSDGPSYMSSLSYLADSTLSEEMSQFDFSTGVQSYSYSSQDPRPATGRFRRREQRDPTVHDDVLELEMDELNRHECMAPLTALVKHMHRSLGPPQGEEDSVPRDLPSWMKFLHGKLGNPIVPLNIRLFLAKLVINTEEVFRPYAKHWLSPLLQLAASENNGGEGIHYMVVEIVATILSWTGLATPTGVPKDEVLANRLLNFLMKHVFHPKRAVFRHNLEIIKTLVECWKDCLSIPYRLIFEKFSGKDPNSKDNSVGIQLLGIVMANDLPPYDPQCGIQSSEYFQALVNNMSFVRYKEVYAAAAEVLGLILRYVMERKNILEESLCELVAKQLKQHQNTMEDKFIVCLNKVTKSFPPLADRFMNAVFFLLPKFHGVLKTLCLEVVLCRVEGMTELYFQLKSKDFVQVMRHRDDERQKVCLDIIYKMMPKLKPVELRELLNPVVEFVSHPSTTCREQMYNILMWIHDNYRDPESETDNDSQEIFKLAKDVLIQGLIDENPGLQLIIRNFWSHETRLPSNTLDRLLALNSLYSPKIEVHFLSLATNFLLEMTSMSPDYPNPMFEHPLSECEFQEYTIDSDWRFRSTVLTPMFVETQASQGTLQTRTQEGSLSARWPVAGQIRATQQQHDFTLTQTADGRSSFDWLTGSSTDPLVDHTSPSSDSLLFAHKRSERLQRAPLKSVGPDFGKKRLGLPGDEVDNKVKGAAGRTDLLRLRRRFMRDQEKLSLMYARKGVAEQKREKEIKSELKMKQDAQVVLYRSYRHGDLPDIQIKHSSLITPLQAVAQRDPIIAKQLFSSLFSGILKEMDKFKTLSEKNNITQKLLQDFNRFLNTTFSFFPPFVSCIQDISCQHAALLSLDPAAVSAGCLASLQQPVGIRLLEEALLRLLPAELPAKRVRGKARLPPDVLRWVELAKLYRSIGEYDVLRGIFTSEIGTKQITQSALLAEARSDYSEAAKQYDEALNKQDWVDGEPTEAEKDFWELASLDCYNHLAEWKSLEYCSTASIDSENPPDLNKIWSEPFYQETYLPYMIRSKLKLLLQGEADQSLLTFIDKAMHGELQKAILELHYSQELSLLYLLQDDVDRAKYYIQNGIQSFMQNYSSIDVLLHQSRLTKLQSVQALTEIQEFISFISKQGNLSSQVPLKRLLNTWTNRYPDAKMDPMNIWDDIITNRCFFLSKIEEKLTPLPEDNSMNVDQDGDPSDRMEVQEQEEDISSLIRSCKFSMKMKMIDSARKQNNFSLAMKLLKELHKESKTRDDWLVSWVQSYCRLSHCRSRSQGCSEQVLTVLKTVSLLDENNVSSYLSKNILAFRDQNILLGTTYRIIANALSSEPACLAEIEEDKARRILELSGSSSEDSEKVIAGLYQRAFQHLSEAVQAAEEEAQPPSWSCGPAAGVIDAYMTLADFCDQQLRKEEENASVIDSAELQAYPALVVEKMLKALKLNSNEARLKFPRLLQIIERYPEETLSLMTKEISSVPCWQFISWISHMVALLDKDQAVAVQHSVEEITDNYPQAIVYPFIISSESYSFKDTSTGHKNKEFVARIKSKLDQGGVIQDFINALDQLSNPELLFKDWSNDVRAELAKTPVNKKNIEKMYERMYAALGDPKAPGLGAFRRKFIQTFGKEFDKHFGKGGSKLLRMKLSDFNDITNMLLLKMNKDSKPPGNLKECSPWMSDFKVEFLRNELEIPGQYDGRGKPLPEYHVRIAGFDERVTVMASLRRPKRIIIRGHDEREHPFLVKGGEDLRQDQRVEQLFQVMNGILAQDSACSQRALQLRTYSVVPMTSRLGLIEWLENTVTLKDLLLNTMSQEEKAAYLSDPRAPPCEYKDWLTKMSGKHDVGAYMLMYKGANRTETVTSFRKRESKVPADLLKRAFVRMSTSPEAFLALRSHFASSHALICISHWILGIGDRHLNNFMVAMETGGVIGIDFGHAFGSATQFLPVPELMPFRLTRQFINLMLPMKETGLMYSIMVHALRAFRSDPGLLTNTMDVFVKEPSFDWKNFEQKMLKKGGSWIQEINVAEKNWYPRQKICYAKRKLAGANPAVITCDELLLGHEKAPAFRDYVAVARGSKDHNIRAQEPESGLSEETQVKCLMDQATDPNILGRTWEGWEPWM

pIC50: −log10 of the molar value. A value given as a limit tells only on which side of the number the result lay.

Turning to `CC[C@H]1COCCN1c1nc(-c2ccc(NC(=O)NC)cc2F)nc2c1C(C)S(=O)(=O)C2(C)C` (stereo partly drawn) [Example 79, 1-(4-(4-((S)-3-ethylmorpholino)-5,7,7-trimethyl-6,6-dioxido-5,7-dihydrothieno[3,4-d]pyrimidin-2-yl)-3-fluorophenyl)-3-methylurea], the pIC50 in assay [1] and in assay [3] was greater than 7.00 each time. Further, the IC50 in assay [2] was 631 nM.
Consider `CC[C@H]1COCCN1c1nc(-c2ccc(NC(=O)NC)cc2)nc2c1C(C)S(=O)(=O)C2(C)C` (stereo partly drawn) [Example 80, 1-(4-(4-((S)-3-ethylmorpholino)-5,7,7-trimethyl-6,6-dioxido-5,7-dihydrothieno[3,4-d]pyrimidin-2-yl)phenyl)-3-methylurea], for which the pIC50 in assay [1] and in assay [3] was greater than 7.00 each time. Also, in assay [2], the IC50 is 100 nM.
For the compound `CCNC(=O)Nc1ccc(-c2nc3c(c(N4CCOC[C@@H]4C)n2)C(C)S(=O)(=O)C3)cc1F` (stereo partly drawn) [Example 50, 1-ethyl-3-(2-fluoro-4-(5-methyl-4-((S)-3-methylmorpholino)-6,6-dioxido-5,7-dihydrothieno[3,4-d]pyrimidin-2-yl)phenyl)urea], the pIC50 in assay [1] and in assay [3] was greater than 7.00 in each case. For the same compound, the IC50 in assay [2] was 1000 nM.
Regarding `C[C@@H]1COCCN1c1nc(-c2ccc(NC(=O)NC3CC3)cc2)nc2c1[C@H](C)S(=O)(=O)C2` [Example 63, 1-cyclopropyl-3-(4-((S)-5-methyl-4-((R)-3-methylmorpholino)-6,6-dioxido-5,7-dihydrothieno[3,4-d]pyrimidin-2-yl)phenyl)urea], the pIC50 is greater than 7.00 in assay [1] and 6.00 to 7.00 in assay [3]. The IC50 in assay [2] is 251 nM.
As to `C[C@H]1COCCN1c1nc(-c2ccc(NC(=O)NCCCF)cc2)nc2c1CS(=O)(=O)C2` [Example 28, (S)-1-(3-fluoropropyl)-3-(4-(4-(3-methylmorpholino)-6,6-dioxido-5,7-dihydrothieno[3,4-d]pyrimidin-2-yl)phenyl)urea], the pIC50 in assay [1] was 6.00 to 7.00; in assay [3], 6.00 to 7.00; in assay [4], less than 5.00.
Regarding `O=C(NCCF)Nc1ccc(-c2nc3c(c(N4CC5CCC(C4)O5)n2)CS(=O)(=O)C3)cc1` [Example 22, 1-(4-(4-(8-oxa-3-azabicyclo[3.2.1]octan-3-yl)-6,6-dioxido-5,7-dihydrothieno[3,4-d]pyrimidin-2-yl)phenyl)-3-(2-fluoroethyl)urea], the negative logarithm of the IC50 (pIC50) in assay [1] was 6.00 to 7.00; in assay [3] it was greater than 7.00; in assay [4], less than 5.00.
As to `C[C@H]1COCCN1c1nc(-c2ccc(NC(=O)NCCF)cc2)nc2c1CS(=O)(=O)C2` [Example 14, (S)-1-(2-fluoroethyl)-3-(4-(4-(3-methylmorpholino)-6,6-dioxido-5,7-dihydrothieno[3,4-d]pyrimidin-2-yl)phenyl)urea], the values for the pIC50 in assay [1], in assay [3] and in assay [4] were 6.00 to 7.00, greater than 7.00 and less than 5.52, respectively.
For the compound `C[C@H]1COCCN1c1nc(-c2ccc(NC(=O)NC3CC3)cc2)nc2c1CS(=O)(=O)CC2` [Example 4, (S)-1-cyclopropyl-3-(4-(4-(3-methylmorpholino)-6,6-dioxido-7,8-dihydro-5H-thiopyrano[4,3-d]pyrimidin-2-yl)phenyl)urea], the pIC50 is 6.00 to 7.00 in assay [1], greater than 7.00 in assay [3] and less than 5.00 in assay [4].
In the case of `CNC(=O)Nc1ccc(-c2nc(N3CCOC[C@@H]3C)c3c(n2)C(C)(C)S(=O)(=O)C3)cc1F` [Example 65, (S)-1-(4-(7,7-dimethyl-4-(3-methylmorpholino)-6,6-dioxido-5,7-dihydrothieno[3,4-d]pyrimidin-2-yl)-2-fluorophenyl)-3-methylurea], the pIC50 was greater than 7.00 in assay [1], 6.00 to 7.00 in assay [3] and less than 5.00 in assay [4].
With `O=C(NCCO)Nc1ccc(-c2nc3c(c(N4CC5CCC(C4)O5)n2)CS(=O)(=O)C3)cc1` [Example 16, 1-(4-(4-(8-oxa-3-azabicyclo[3.2.1]octan-3-yl)-6,6-dioxido-5,7-dihydrothieno[3,4-d]pyrimidin-2-yl)phenyl)-3-(2-hydroxyethyl)urea], the pIC50 was 5.00 to 6.00 in assay [1], greater than 7.00 in assay [3] and less than 5.00 in assay [4].
Consider `CCNC(=O)Nc1ccc(-c2nc3c(c(N4CC5CCC(C4)O5)n2)CS(=O)(=O)C3)cc1` [Example 15, 1-(4-(4-(8-oxa-3-azabicyclo[3.2.1]octan-3-yl)-6,6-dioxido-5,7-dihydrothieno[3,4-d]pyrimidin-2-yl)phenyl)-3-ethylurea], for which the pIC50 in assay [1] was greater than 7.00; in assay [3], greater than 7.00; in assay [4], less than 5.00.
For `C[C@H]1COCCN1c1nc(-c2ccc(NC(=O)NC3CC3)cc2)nc2c1SCCC2` [Example 8, (S)-1-cyclopropyl-3-(4-(4-(3-methylmorpholino)-7,8-dihydro-6H-thiopyrano[3,2-d]pyrimidin-2-yl)phenyl)urea], the pIC50 in assay [1] is greater than 7.00; in assay [3], greater than 7.00; in assay [4], less than 5.00.
For `C[C@H]1COCCN1c1nc(-c2ccc(NC(=O)NCCO)cc2)nc2c1CS(=O)(=O)C2` [Example 13, (S)-1-(2-hydroxyethyl)-3-(4-(4-(3-methylmorpholino)-6,6-dioxido-5,7-dihydrothieno[3,4-d]pyrimidin-2-yl)phenyl)urea], the pIC50 is 5.00 to 6.00 in assay [1], greater than 7.00 in assay [3] and 5.00 to 6.00 in assay [4].
`CC1c2c(nc(-c3ccc(NC(=O)NC4CC4)cc3)nc2N2CCOCC2)CS1(=O)=O` (stereo not drawn) [Example 31, 1-cyclopropyl-3-(4-(5-methyl-4-morpholino-6,6-dioxido-5,7-dihydrothieno[3,4-d]pyrimidin-2-yl)phenyl)urea]: the pIC50 in assay [1] is greater than 7.00; in assay [3] it was 6.00 to 7.00; in assay [4], less than 5.00.
`O=C(NCCCF)Nc1ccc(-c2nc3c(c(N4CC5CCC(C4)O5)n2)CS(=O)(=O)C3)cc1` [Example 29, 1-(4-(4-(8-oxa-3-azabicyclo[3.2.1]octan-3-yl)-6,6-dioxido-5,7-dihydrothieno[3,4-d]pyrimidin-2-yl)phenyl)-3-(3-fluoropropyl)urea]: the pIC50 in assay [1] was 6.00 to 7.00; in assay [3], 6.00 to 7.00; in assay [4], less than 5.00.
For `O=C(Nc1ccc(-c2nc3c(c(N4C5CCC4COC5)n2)CS(=O)(=O)C3)cc1)NC1CC1` [Example 26, 1-(4-(4-(3-oxa-8-azabicyclo[3.2.1]octan-8-yl)-6,6-dioxido-5,7-dihydrothieno[3,4-d]pyrimidin-2-yl)phenyl)-3-cyclopropylurea], the pIC50 was greater than 7.00 in assay [1], greater than 7.00 in assay [3] and less than 5.00 in assay [4].

Broadly, the pIC50 is the negative decadic logarithm of the IC50, by convention in mol/L.
